Reference: patent publication US7517874B2 (priority 2007, dated 2009)
Like-named read-outs stand apart in the source and are kept apart here.

Tests used:
[1] = target: human CB1 receptor (hCB1) (Homo sapiens, UniProt P21554); assay: cell-based; type: cell-based
Outline: (§1)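 Readout: LANCE TR-FRET cAMP, back-calculated from a concurrent standard curve and scaled between forskolin-only and forskolin + 1 μM CP55,940 wells. EC50 and intrinsic activity came from four-parameter fits.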

rat CB2 receptor (rCB2) = target: T1, rat CB2 receptor (rCB2) (Rattus norvegicus, UniProt Q9QZN9); assay: cell-based; type: cell-based; conditions: for +/− RCB2: agonist or inverse agonist at rCB2
T1 sequence (Q9QZN9 1-360): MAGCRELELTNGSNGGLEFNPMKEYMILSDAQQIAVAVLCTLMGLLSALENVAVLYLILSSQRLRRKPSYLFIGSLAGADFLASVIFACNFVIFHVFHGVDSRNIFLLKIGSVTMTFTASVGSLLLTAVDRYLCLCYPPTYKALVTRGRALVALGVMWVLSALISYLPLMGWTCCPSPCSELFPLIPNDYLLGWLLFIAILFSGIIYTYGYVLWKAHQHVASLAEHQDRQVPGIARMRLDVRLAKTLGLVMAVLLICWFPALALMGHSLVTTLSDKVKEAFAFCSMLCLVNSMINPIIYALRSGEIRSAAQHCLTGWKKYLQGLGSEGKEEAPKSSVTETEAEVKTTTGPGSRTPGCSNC
Outline: as §1

[2] = groups >100 nM-10 μM and >10 μM, cAMP, CHO-K1 hCB1, read-out: EC50 HCB1
[3] = groups >100 nM-10 μM and >10 μM, cAMP, CHO-K1 rCB2, read-out: EC50 RCB2

Sequence of human CB1 receptor (hCB1) (P21554 whole entry): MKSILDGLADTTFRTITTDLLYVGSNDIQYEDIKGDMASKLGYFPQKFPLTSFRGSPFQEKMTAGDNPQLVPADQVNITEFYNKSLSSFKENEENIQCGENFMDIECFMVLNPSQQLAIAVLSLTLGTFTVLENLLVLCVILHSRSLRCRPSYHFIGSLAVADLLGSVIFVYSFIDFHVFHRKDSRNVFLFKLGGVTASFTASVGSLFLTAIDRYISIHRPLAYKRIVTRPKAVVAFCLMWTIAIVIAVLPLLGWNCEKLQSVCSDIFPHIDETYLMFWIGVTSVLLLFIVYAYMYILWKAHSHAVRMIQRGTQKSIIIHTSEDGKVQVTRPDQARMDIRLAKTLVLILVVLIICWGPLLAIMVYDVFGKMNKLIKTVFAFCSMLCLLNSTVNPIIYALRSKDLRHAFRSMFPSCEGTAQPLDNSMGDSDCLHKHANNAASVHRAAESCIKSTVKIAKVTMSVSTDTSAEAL

SMILES	EC50 [1, 2]	+/− RCB2 (rat CB2 receptor (rCB2))	EC50 (rat CB2 receptor (rCB2); [3])	EC50 [1]	EC50 (rat CB2 receptor (rCB2))
CN1CCn2c(-c3ccc(Cl)cc3F)nc(C(=O)N3CCC(n4c(=O)[nH]c5ccccc54)CC3)c2C1 [Compound 215, 1-(1-(3-(4-chloro-2-fluorophenyl)-7-methyl-5,6,7,8-tetrahydroimidazo[1,5-a]pyrazine-1-carbonyl)piperidin-4-yl)-1H-benzo[d]imidazol-2(3H)-one]	> 10000 nM	−			
CNC(=O)c1cccc(NC(=O)c2nc(-c3ccc(Cl)cc3F)n3c2CN(C)CC3)c1 [Compound 216, 3-(4-chloro-2-fluorophenyl)-7-methyl-N-(3-(methylcarbamoyl)phenyl)-5,6,7,8-tetrahydroimidazo[1,5-a]pyrazine-1-carboxamide]	> 10000 nM	−			
CNC(=O)c1ccccc1NC(=O)c1nc(-c2ccc(Cl)cc2F)n2c1CN(C)CC2 [Compound 217]	> 10000 nM		> 10000 nM		
CNC(=O)c1ccc(NC(=O)c2nc(-c3ccc(Cl)cc3F)n3c2CN(C)CC3)cc1 [Compound 218]	> 10000 nM		> 10000 nM		
CN1CCn2c(-c3ccc(Cl)cc3F)nc(C(=O)Nc3ccc(S(=O)(=O)N4CCOCC4)cc3)c2C1 [Compound 219]	> 10000 nM	−			
CN1CCn2c(-c3ccc(Cl)cc3F)nc(C(=O)N3CCC4(CCN(C)C4=O)CC3)c2C1 [Compound 221, 8-(3-(4-chloro-2-fluorophenyl)-7-methyl-5,6,7,8-tetrahydroimidazo[1,5-a]pyrazine-1-carbonyl)-2-methyl-2,8-diazaspiro[4.5]decan-1-one]				> 10000 nM	> 10000 nM
CN1CCn2c(-c3ccc(Cl)cc3F)nc(C(=O)N3CCC(N4C(=O)Cc5ccccc54)CC3)c2C1 [Compound 222, 1-(1-(3-(4-chloro-2-fluorophenyl)-7-methyl-5,6,7,8-tetrahydroimidazo[1,5-a]pyrazine-1-carbonyl)piperidin-4-yl)indolin-2-one]				> 10000 nM	> 10000 nM
Cc1nnc(C)n1C1CCN(C(=O)c2nc(-c3ccc(Cl)cc3F)n3c2CN(C)CC3)CC1 [Compound 223, (3-(4-chloro-2-fluorophenyl)-7-methyl-5,6,7,8-tetrahydroimidazo[1,5-a]pyrazin-1-yl)(4-(3,5-dimethyl-4H-1,2,4-triazol-4-yl)piperidin-1-yl)methanone]				> 10000 nM	> 10000 nM
COC(=O)c1cccc(CNC(=O)c2nc(-c3ccc(Cl)cc3F)n3c2CN(C)CC3)c1 [Compound 224, methyl 3-((3-(4-chloro-2-fluorophenyl)-7-methyl-5,6,7,8-tetrahydroimidazo[1,5-a]pyrazine-1-carboxamido)methyl)benzoate]	> 10000 nM	−			
CN1CCn2c(-c3ccc(Cl)cc3F)nc(C(=O)N3CCC(C(N)=O)(N4CCOCC4)CC3)c2C1 [Compound 225]				> 10000 nM	> 10000 nM
CN1CCn2c(-c3ccc(Cl)cc3F)nc(C(=O)N3CCC(C(=O)N4CCOCC4)CC3)c2C1 [Compound 226, (3-(4-chloro-2-fluorophenyl)-7-methyl-5,6,7,8-tetrahydroimidazo[1,5-a]pyrazin-1-yl)(4-(morpholine-4-carbonyl)piperidin-1-yl)methanone]				> 10000 nM	> 10000 nM
CN1CCn2c(-c3ccc(Cl)cc3F)nc(C(=O)N3CCC(n4cc(-c5ccccc5)[nH]c4=O)CC3)c2C1 [Compound 227, 1-(1-(3-(4-chloro-2-fluorophenyl)-7-methyl-5,6,7,8-tetrahydroimidazo[1,5-a]pyrazine-1-carbonyl)piperidin-4-yl)-4-phenyl-1H-imidazol-2(3H)-one]	> 10000 nM	−			
CN1CCn2c(-c3ccc(Cl)cc3F)nc(C(=O)NCc3ccc4[nH]c(=O)[nH]c4c3)c2C1 [Compound 228, 3-(4-chloro-2-fluorophenyl)-7-methyl-N-((2-oxo-2,3-dihydro-1H-benzo[d]imidazol-5-yl)methyl)-5,6,7,8-tetrahydroimidazo[1,5-a]pyrazine-1-carboxamide]	> 10000 nM	−			
